Test results: US5346828A, “Stereoisomeric enrichment of 2-amino-3-hydroxy-3-phenylpropionic acids using d-threonine aldolase” (Celgene Corporation, priority 1992, dated 1994)

Test: incubation of substrate in the same buffer without enzyme (Enzyme 0), HPLC
Format: physicochemical
Protocol: D,L-Threo 2-amino-2-methyl-3-hydroxy-3-phenylpropionic acid (14.1 mM) is incubated at pH 8.75 in 50 mM borate buffer and 0.8 mM pyridoxal phosphate with ruptured cells containing approximately 300 μL of enzyme.
At time intervals of approximately 30, 120 and 210 minutes, 200 μL of the incubation mixture are removed and diluted with 800 μL of 1% perchloric acid. After centrifugation of this mixture, the supernatant is analyzed on HPLC.

**Q.** For `N[C@H](C(=O)O)[C@H](O)c1ccccc1` (relative stereo) [t.phi.S, 2amino-3-hydroxy-3-phenylpropionic acid], which “Percentage of total area attributable to benzaldehyde and benzoic acid” value (“Percentage of total area attributable” below) (30 min.) is on record?
**A.** The value was 0%.

**Q.** What about the “Percentage of total area attributable” value (120 min.) of the same compound?
**A.** Its value is 2.2%.

**Q.** What about the “Percentage of total area attributable” value (210 min.) of the same compound?
**A.** The value was 3.7%.
